In brackets after ≈: the same amount, converted by molar mass. Activity calls are given as the source filed them. The rule behind the calls is not given here.
What was measured:
[1] = Cytotoxicity against human HCT116 cells assessed as growth inhibition after 72 hrs by MTT assay; type: functional, cell-based; conditions: HCT-116, 72 h
[2] = Cytotoxicity against human Caco2 cells assessed as growth inhibition after 72 hrs by MTT assay; type: functional, cell-based; conditions: Caco-2, 72 h
[3] = Cytotoxicity against human […] cells assessed as growth inhibition after 72 hrs by MTT assay; type: functional, cell-based
[4] = Cytotoxicity against human H460 cells assessed as growth inhibition after 72 hrs by MTT assay; type: functional, cell-based; conditions: NCI-H460, 72 h
[5] = Cytotoxicity against human HELF cells assessed as growth inhibition after 72 hrs by MTT assay; type: cell-based
[6] = Acute toxicity in ip dosed mouse; type: organism-based; conditions: in vivo
HepG2 [7] = assay: Cytotoxicity against human HepG2 cells assessed as growth inhibition after 72 hrs by MTT assay; type: functional, cell-based; conditions: HepG2, 72 h
HCT-116 [8] = assay: Cytotoxicity against human HCT116 cells assessed as cell viability after 24 to 72 hrs by MTT assay; type: functional, cell-based
Caco-2 [9] = assay: Cytotoxicity against human Caco2 cells assessed as cell viability after 24 to 72 hrs by MTT assay; type: functional, cell-based
HepG2 [10] = assay: Cytotoxicity against human HepG2 cells assessed as cell viability after 24 to 72 hrs by MTT assay; type: functional, cell-based
BGC832 [11] = assay: Cytotoxicity against human […] cells assessed as cell viability after 24 to 72 hrs by MTT assay; type: functional, cell-based
NCI-H460 [12] = assay: Cytotoxicity against human H460 cells assessed as cell viability after 24 to 72 hrs by MTT assay; type: functional, cell-based
HCT-116 [13] = assay: Cytotoxicity against human HCT116 cells assessed as cell viability at 1.2 to 100 uM by MTT assay; type: functional, cell-based; conditions: TDE = time-dependent effect
Caco-2 [14] = assay: Cytotoxicity against human Caco2 cells assessed as cell viability at 1.2 to 100 uM by MTT assay; type: functional, cell-based; conditions: TDE = time-dependent effect
HepG2 [15] = assay: Cytotoxicity against human HepG2 cells assessed as cell viability at 1.2 to 100 uM by MTT assay; type: functional, cell-based; conditions: TDE = time-dependent effect
BGC832 [16] = assay: Cytotoxicity against human […] cells assessed as cell viability at 1.2 to 100 uM by MTT assay; type: functional, cell-based; conditions: TDE = time-dependent effect
NCI-H460 [17] = assay: Cytotoxicity against human H460 cells assessed as cell viability at 1.2 to 100 uM by MTT assay; type: functional, cell-based; conditions: TDE = time-dependent effect
Candida albicans = assay: Antimicrobial activity against Candida albicans by micro dilution method; type: functional, organism-based
Aspergillus niger = assay: Antimicrobial activity against Aspergillus niger by micro dilution method; type: functional, organism-based
Bacillus subtilis = assay: Antimicrobial activity against Bacillus subtilis after 24 hrs using MTT reagent by micro dilution method; type: functional
Staphylococcus aureus = assay: Antimicrobial activity against Staphylococcus aureus after 24 hrs using MTT reagent by micro dilution method; type: functional, organism-based
Escherichia coli = assay: Antimicrobial activity against Escherichia coli after 24 hrs using MTT reagent by micro dilution method; type: functional, organism-based

COc1cccc2c1C(=O)c1c(O)c3c(c(O)c1C2=O)C[C@@](O)(C(=O)CO)C[C@@H]3O[C@H]1C[C@H](N)[C@H](O)[C@H](C)O1 [DOXORUBICIN]
IC50 [1]: 0.74 µM
IC50 [2]: 0.96 µM
IC50 [3]: 1.48 µM
IC50 [4]: 0.98 µM
IC50 [5]: 7.31 µM

CCCCCCC1CC(=O)CCCC(O)CC(=O)C2=C(O)C(OC3CC(OC)C(O)C(C)O3)CC2\C=C(C)/C=C/C=C/C(=O)N1 (configuration not stated)
LD50 [6]: > 100 mg/kg

CCC/C=C/CC1CC(O)[C@@H](O)[C@@H]2/C(C)=C/[C@H]3C=C[C@H]4O[C@H]4[C@@H]3/C(C)=C/C=C\[C@@H]2C(=O)N1 (some centres not stated)
IC50 ([1]; read-out: IC50): 8.03 µM
IC50 [2]: 15 µM
IC50 (HepG2 [7]): 15 µM
IC50 [3]: 13.1 µM
IC50 [4]: 3.76 µM
IC50 [5]: 46.5 µM
Activity (HCT-116 [8]): Dose-dependent effect
Activity (Caco-2 [9]): Dose-dependent effect
Activity (HepG2 [10]): Dose-dependent effect
Activity (BGC832 [11]): Dose-dependent effect
Activity (NCI-H460 [12]): Dose-dependent effect
Activity (HCT-116 [13]): tde
Activity (Caco-2 [14]): tde
Activity (HepG2 [15]): tde
Activity (BGC832 [16]): tde
Activity (NCI-H460 [17]): tde
Activity (Candida albicans): inactive
Activity (Aspergillus niger): inactive
MIC (Bacillus subtilis): 43.9 µg/mL (≈ 99.9 µM)
Activity (Staphylococcus aureus): inactive
Activity (Escherichia coli): inactive

— ChEMBL document CHEMBL3779773, “A unique macrolactam derivative via a [4+6]-cycloaddition from Streptomyces niveus” (Bioorg Med Chem Lett, 2016)
